We go through 18 molecules from patent US8183243B2, “Melanocortin receptor agonists” (LG Life Sciences Ltd., priority 2008, dated 2012).

T1 sequence (P32245 whole entry, species assumed): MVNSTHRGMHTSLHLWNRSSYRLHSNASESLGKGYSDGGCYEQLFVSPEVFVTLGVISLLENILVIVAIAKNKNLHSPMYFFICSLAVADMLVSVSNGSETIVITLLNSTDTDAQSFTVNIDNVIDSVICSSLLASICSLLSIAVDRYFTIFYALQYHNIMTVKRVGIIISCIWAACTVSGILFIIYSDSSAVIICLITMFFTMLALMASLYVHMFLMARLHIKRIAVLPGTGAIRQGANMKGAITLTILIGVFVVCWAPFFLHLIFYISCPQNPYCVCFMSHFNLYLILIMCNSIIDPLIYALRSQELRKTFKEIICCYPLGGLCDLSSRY

The assay concerns the target T1, MC4R (Homo sapiens, UniProt P32245).
T1 construct: expressed in transfected cells; host or cells: HEK (Human Embryonic Kidney) permanent expression cell line HEK MC4R-Luc, co-expressing CRE-luciferase
The assay can be described thus: MCR agonistic activity (luciferase assay / cAMP accumulation assay) on MC4R. The class given is cell-based. The note with it: HEK cell lines expressing MC4R; method A (CRE-luciferase) or B (cAMP accumulation), not said which; read-out: EC50 value, agonistic activity to MC4R (range per group of Examples). Put shortly:
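HEK cells stably expressing MC4R with a CRE-luciferase reporter treated 5 hours at 37 °C with serially diluted agonist (≤1% DMSO); luminescence expressed relative to 10 nM NDP-MSH, EC50 at half-maximal signal. Alternatively, cAMP measured after 30 minutes with compound plus 500 μM IBMX by [3H]-cAMP competition binding.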
Background: cAMP levels reflect the balance of adenylyl cyclase and phosphodiesterase activity.
By EC50 is commonly meant the concentration at which the effect is half-maximal. With `CN1CCN(C(=O)[C@@H]2C[C@H](N(C(=O)[C@@H]3CCCO3)[C@H]3CC[C@@H](C)CC3)CN2C(=O)[C@@H]2CN(c3ccccc3)C[C@H]2c2ccc(Cl)cc2)CC1` [Example 46, (2S)-N-{(3S,5S)-1-{[(3S,4R)-4-(4-chlorophenyl)-1-phenylpyrrolidin-3-yl]carbonyl}-5-[(4-methylpiperazin-1-yl)carbonyl]pyrrolidin-3-yl}-N-(cis-4-methylcyclohexyl)tetrahydrofuran-2-carboxamide], the EC50 was 10 to 100 nM. With `CC(C)N1CCN(C(=O)[C@@H]2C[C@H](N(C(=O)[C@@H]3CCCO3)C3CCC(C)(C)CC3)CN2C(=O)[C@@H]2CN(C3CCOCC3)C[C@H]2c2ccc(F)cc2F)CC1` [Example 47, (2S)-N-{(3S,5S)-1-{[(3S,4R)-4-(2,4-difluorophenyl)-1-(tetrahydro-2H-pyran-4-yl)pyrrolidin-3-yl]carbonyl}-5-[(4-isopropylpiperazin-1-yl)carbonyl]pyrrolidin-3-yl}-N-(4,4-dimethylcyclohexyl)tetrahydrofuran-2-carboxamide] the figure was 10 to 100 nM. On to `CC(C)N1CCN(C(=O)[C@@H]2C[C@H](N(C(=O)[C@@H]3CCCO3)C3CCC(C)(C)CC3)CN2C(=O)[C@@H]2CN(C3CCSCC3)C[C@H]2c2ccc(F)cc2F)CC1` [Example 48, (2S)-N-{(3S,5S)-1-{[(3S,4R)-4-(2,4-difluorophenyl)-1-(tetrahydro-2H-thiopyran-4-yl)pyrrolidin-3-yl]carbonyl}-5-[(4-isopropylpiperazin-1-yl)carbonyl]pyrrolidin-3-yl}-N-(4,4-dimethylcyclohexyl)tetrahydrofuran-2-carboxamide], for which the 50% effective concentration (EC50) fell in the range of 10 to 100 nM. On to `CN1CCN(C(=O)[C@@H]2C[C@H](N(C(=O)C(C)(C)CO)C3CCC(C)(C)CC3)CN2C(=O)[C@@H]2CN(C3CCOCC3)C[C@H]2c2ccc(Cl)cc2)CC1` [Example 49, N-{(3S,5S)-1-{[(3S,4R)-4-(4-chlorophenyl)-1-(tetrahydro-2H-pyran-4-yl)pyrrolidin-3-yl]carbonyl}-5-[(4-methylpiperazin-1-yl)carbonyl]pyrrolidin-3-yl}-N-(4,4-dimethylcyclohexyl)-3-hydroxy-2,2-dimethylpropanamide], for which the EC50 lay in the range of 0.1 to 10 nM. For `CN1CCN(C(=O)[C@@H]2C[C@H](N(C(=O)C(C)(C)C)C3CCC(F)(F)CC3)CN2C(=O)[C@@H]2CN(C3CCOCC3)C[C@H]2c2ccc(Cl)cc2)CC1` [Example 50, N-{(3S,5S)-1-{[(3S,4R)-4-(4-chlorophenyl)-1-(tetrahydro-2H-pyran-4-yl)pyrrolidin-3-yl]carbonyl}-5-[(4-methylpiperazin-1-yl)carbonyl]pyrrolidin-3-yl}-N-(4,4-difluorocyclohexyl)-2,2-dimethylpropanamide], the EC50 lay within 0.1 to 10 nM. Take `CN1CCN(C(=O)[C@@H]2C[C@H](N(C(=O)[C@@H]3CCCO3)C3CCC(F)(F)CC3)CN2C(=O)[C@@H]2CN(C3CCOCC3)C[C@H]2c2ccc(Cl)cc2)CC1` [Example 51, (2S)-N-{(3S,5S)-1-{[(3S,4R)-4-(4-chlorophenyl)-1-(tetrahydro-2H-pyran-4-yl)pyrrolidin-3-yl]carbonyl}-5-[(4-methylpiperazin-1-yl)carbonyl]pyrrolidin-3-yl}-N-(4,4-difluorocyclohexyl)tetrahydrofuran-2-carboxamide]: the EC50 lay in the range of 10 to 100 nM.

Turning to `CC(C)N1CCN(C(=O)[C@H]2C[C@H](N(C(=O)[C@@H]3CCCO3)C3CCC(C)(C)CC3)CN2C(=O)[C@@H]2CN(C3CCOCC3)C[C@H]2c2ccc(F)cc2F)CC1` [Example 52, (2S)-N-{(3S,5R)-1-{[(3S,4R)-4-(2,4-difluorophenyl)-1-(tetrahydro-2H-pyran-4-yl)pyrrolidin-3-yl]carbonyl}-5-[(4-isopropylpiperazin-1-yl)carbonyl]pyrrolidin-3-yl}-N-(4,4-dimethylcyclohexyl)tetrahydrofuran-2-carboxamide], the EC50 is 0.1 to 10 nM. As to `CN1CCN(C(=O)[C@@H]2C[C@H](N(C(=O)C(C)(C)C)[C@H]3CC[C@@H](C)CC3)CN2C(=O)[C@@H]2CN(C3CCOCC3)C[C@H]2c2ccc(F)cc2F)CC1` [Example 53, N-{(3S,5S)-1-{[(3S,4R)-4-(2,4-difluorophenyl)-1-(tetrahydro-2H-pyran-4-yl)pyrrolidin-3-yl]carbonyl}-5-[(4-methylpiperazin-1-yl)carbonyl]pyrrolidin-3-yl}-2,2-dimethyl-N-(cis-4-methylcyclohexyl)propanamide], the EC50 was 0.1 to 10 nM. With `CC(=O)N(C1CCC(C)CC1)[C@H]1C[C@H](C(=O)N2CCN(C)CC2)N(C(=O)[C@@H]2CN(C3CCOCC3)C[C@H]2c2ccc(Cl)cc2)C1` (stereo partly drawn) [Example 54, N-{(3S,5R)-1-{[(3S,4R)-4-(4-chlorophenyl)-1-(tetrahydro-2H-pyran-4-yl)pyrrolidin-3-yl]carbonyl}-5-[(4-methylpiperazin-1-yl)carbonyl]pyrrolidin-3-yl}-N-(4-methylcyclohexyl)acetamide] the figure was 0.1 to 10 nM.

On to `CN1CCN(C(=O)[C@H]2C[C@H](N(C(=O)[C@@H]3CCCO3)C3CCC(C)(C)CC3)CN2C(=O)[C@@H]2CN(C3CC3)C[C@H]2c2ccc(Cl)cc2)CC1` [Example 55, (2S)-N-{(3S,5R)-1-{[(3S,4R)-4-(4-chlorophenyl)-1-cyclopropylpyrrolidin-3yl]carbonyl}-5-[(4-methylpiperazin-1-yl)carbonyl]pyrrolidin-3-yl}-N-(4,4-dimethylcyclohexyl)tetrahydrofuran-2-carboxamide], for which the EC50 lay in the range of 10 to 100 nM.

Consider `CN1CCN(C(=O)[C@@H]2C[C@H](N(C(=O)[C@@H]3CCCO3)[C@H]3CC[C@@H](C)CC3)CN2C(=O)[C@@H]2CN(C3CC3)C[C@H]2c2ccc(Cl)cc2)CC1` [Example 56, (2S)-N-{(3S,5S)-1-{[(3S,4R)-4-(4-chlorophenyl)-1-cyclopropylpyrrolidin-3-yl]carbonyl}-5-[(4-methylpiperazin-1-yl)carbonyl]pyrrolidin-3-yl}-N-(cis-4-methylcyclohexyl)tetrahydrofuran-2-carboxamide], for which the EC50 is 10 to 100 nM. With `CN1CCN(C(=O)[C@H]2C[C@H](N(C(=O)[C@@H]3CCCO3)[C@H]3CC[C@@H](C)CC3)CN2C(=O)[C@@H]2CN(C3CC3)C[C@H]2c2ccc(Cl)cc2)CC1` [Example 57, (2S)-N-{(3S,5R)-1-{[(3S,4R)-4-(4-chlorophenyl)-1-cyclopropylpyrrolidin-3-yl]carbonyl}-5-[(4-methylpiperazin-1-yl)carbonyl]pyrrolidin-3-yl}-N-(cis-4-methylcyclohexyl)tetrahydrofuran-2-carboxamide] the figure was 10 to 100 nM.

As for `CN1CCN(C(=O)[C@@H]2C[C@H](N(C(=O)C(C)(C)CO)C3CCC(C)(C)CC3)CN2C(=O)[C@@H]2CN(C3CC3)C[C@H]2c2ccc(Cl)cc2)CC1` [Example 58, N-{(3S,5S)-1-{[(3S,4R)-4-(4-chlorophenyl)-1-cyclopropylpyrrolidin-3-yl]carbonyl}-5-[(4-methylpiperazin-1-yl)carbonyl]pyrrolidin-3-yl}-N-(4,4-dimethylcyclohexyl)-3-hydroxy-2,2-dimethylpropanamide], the EC50 was in the range of 0.1 to 10 nM. With `CN1CCN(C(=O)[C@@H]2C[C@H](N(C(=O)C(C)(C)CO)[C@H]3CC[C@@H](C)CC3)CN2C(=O)[C@@H]2CN(C3CC3)C[C@H]2c2ccc(Cl)cc2)CC1` [Example 59, N-{(3S,5S)-1-{[(3S,4R)-4-(4-chlorophenyl)-1-cyclopropylpyrrolidin-3-yl]carbonyl}-5-[(4-methylpiperazin-1-yl)carbonyl]pyrrolidin-3-yl}-N-(cis-4-methylcyclohexyl)-3-hydroxy-2,2-dimethylpropanamide] the figure was 0.1 to 10 nM; with `CN1CCN(C(=O)[C@@H]2C[C@H](N(C(=O)C(C)(C)CO)[C@H]3CC[C@@H](C)CC3)CN2C(=O)[C@@H]2CN(C3CC3)C[C@H]2c2ccc(F)cc2F)CC1` [Example 60, N-{(3S,5S)-1-{[(3S,4R)-1-cyclopropyl-4-(2,4-difluorophenyl)pyrrolidin-3-yl]carbonyl}-5-[(4-methylpiperazin-1-yl)carbonyl]pyrrolidin-3-yl}-N-(cis-4-methylcyclohexyl)-3-hydroxy-2,2-dimethylpropanamide], 0.1 to 10 nM.

For `CC(=O)N([C@H]1C[C@H](C(=O)N2CCN(C)CC2)N(C(=O)[C@@H]2CN(C(C)C)C[C@H]2c2ccc(Cl)cc2)C1)[C@H]1CC[C@@H](C)CC1` [Example 62, N-{(3S,5R)-1-{[(3S,4R)-4-(4-chlorophenyl)-1-isopropylpyrrolidin-3-yl]carbonyl}-5-[(4-methylpiperazin-1-yl)carbonyl]pyrrolidin-3-yl}-N-(cis-4-methylcyclohexyl)acetamide], the half-maximal effective concentration (EC50) lay within 10 to 100 nM. For `Cc1ccc(N2C[C@@H](C(=O)N3C[C@@H](N(C(=O)C(C)(C)C)C4CCC(C)(C)CC4)C[C@H]3C(=O)N3CCN(C)CC3)[C@H](c3ccc(Cl)cc3)C2)nn1` [Example 63, N-{(3S,5S)-1-{[(3S,4R)-4-(4-chlorophenyl)-1-(6-methylpyridazine-3-yl)pyrrolidin-3-yl]carbonyl}-5-[(4-methylpiperazin-1-yl)carbonyl]pyrrolidin-3-yl}-N-(4,4-dimethylcyclohexyl)-2,2-dimethylpropanamide], the EC50 fell in the range of 10 to 100 nM. As to `CN1CCN(C(=O)[C@@H]2C[C@H](N(C(=O)C(C)(C)C)C3CCC(C)(C)CC3)CN2C(=O)[C@@H]2CN(c3ccccn3)C[C@H]2c2ccc(Cl)cc2)CC1` [Example 64, N-{(3S,5S)-1-{[(3S,4R)-4-(4-chlorophenyl)-1-pyridine-2-ylpyrrolidin-3-yl]carbonyl}-5-[(4-methylpiperazin-1-yl)carbonyl]pyrrolidin-3-yl}-N-(4,4-dimethylcyclohexyl)-2,2-dimethylpropanamide], the EC50 was 10 to 100 nM.
